Measurements taken from article PMC10085060 (Oncotarget, 2023).

Key:
[1] = Day 10 of riluzole single agent treatment (100 mg BID), advanced melanoma patients, n = 9; cited from earlier work
[2] = test system: RAF1; conditions: cited from earlier work
[3] = Drug related adverse events (CTCAE version 4.0); assay type: in vivo, human
Protocol: Safety assessments including complete blood counts, serum chemistries, liver enzymes and toxicity evaluations were completed at baseline, day 1 and 15 of cycle 1, and then day 1 of every cycle thereafter. Toxicities were evaluated and graded using the CTEP NCI Common Terminology Criteria for Adverse Events (CTCAE), version 4.0.

[4] = drug related AE, Grade ≥3, n=35
[5] = drug related AE, any grade, n=35

Nc1nc2ccc(OC(F)(F)F)cc2s1 [riluzole]
riluzole trough levels, geomean [1]: 78.4 ng/mL

CNC(=O)c1cc(Oc2ccc(NC(=O)Nc3ccc(Cl)c(C(F)(F)F)c3)cc2)ccn1 [sorafenib]
Abdominal Pain [3, 4]: 0
Alkaline Phosphatase Increase [3, 4]: 2
Anemia [3, 4]: 1
Anorexia [3, 4]: 0
Arthralgia [3, 4]: 1
Cardiac troponin I increased [3, 4]: 1
Congestive Heart Failure [3, 4]: 1
Fatigue [3, 4]: 4
Hypertension [3, 4]: 1
Hypokalemia [3, 4]: 1
Hyponatremia [3, 4]: 2
Hypophosphatemia [3, 4]: 4
Lipase Increase [3, 4]: 2
Lymphocyte Count Decrease [3, 4]: 6
Maculopapular Rash [3, 4]: 4
Myocardial infarction [3, 4]: 1
Neutrophil count decrease [3, 4]: 0
Palmar-plantar erythrodysesthesia syndrome [3, 4]: 1
Pruritus [3, 4]: 1
White Blood Cell Decreased [3, 4]: 2
Wound complication [3, 4]: 1
Abdominal Pain [3, 5]: 0
Acute Coronary Syndrome [3, 5]: 1
Acute Kidney Injury [3, 5]: 0
Alanine Aminotransferase Increase [3, 5]: 1
Alkaline Phosphatase Increase [3, 5]: 2
Alopecia [3, 5]: 0
Anemia [3, 5]: 8
Anorexia [3, 5]: 6
Arthralgia [3, 5]: 1
Aspartate Aminotransferase Increase [3, 5]: 3
Ataxia [3, 5]: 0
Blood Bilirubin Increase [3, 5]: 2
Blurred vision [3, 5]: 0
Bullous dermatitis [3, 5]: 1
Cardiac troponin I increased [3, 5]: 1
Congestive Heart Failure [3, 5]: 1
Cough [3, 5]: 0
Depression [3, 5]: 0
Diarrhea [3, 5]: 8
Dizziness [3, 5]: 0
Dry Mouth [3, 5]: 1
Dry skin [3, 5]: 4
Dysarthria [3, 5]: 0
Dysgeusia [3, 5]: 1
Dyspepsia [3, 5]: 1
Dyspnea [3, 5]: 0
Edema (limbs) [3, 5]: 1
Fatigue [3, 5]: 13
Fecal Incontinence [3, 5]: 1
Fever [3, 5]: 0
Flatulence [3, 5]: 0
Gastrointestinal Fistula [3, 5]: 1
Gastroparesis [3, 5]: 0
Headache [3, 5]: 0
Hoarseness [3, 5]: 0
Hypercalcemia [3, 5]: 1
Hyperglycemia [3, 5]: 4
Hyperkalemia [3, 5]: 3
Hypertension [3, 5]: 6
Hypoalbuminemia [3, 5]: 3
Hypocalcemia [3, 5]: 2
Hypokalemia [3, 5]: 1
Hypomagnesemia [3, 5]: 2
Hyponatremia [3, 5]: 7
Hypophosphatemia [3, 5]: 11
Hypotension [3, 5]: 1
Hypothyroidism [3, 5]: 1
Increased blood urea nitrogen [3, 5]: 1
Insomnia [3, 5]: 0
Lipase Increase [3, 5]: 5
Lymphocyte Count Decrease [3, 5]: 10
Maculopapular Rash [3, 5]: 11
Mucosal infection [3, 5]: 1
Mucositis oral [3, 5]: 5
Muscle weakness [3, 5]: 1
Myalgia [3, 5]: 0
Myocardial infarction [3, 5]: 1
Nausea [3, 5]: 2
Neutrophil count decrease [3, 5]: 0
Oral pain [3, 5]: 1
Palmar-plantar erythrodysesthesia syndrome [3, 5]: 11
Peripheral Sense Neuropathy [3, 5]: 1
Platelet Count Decrease [3, 5]: 3
Pruritus [3, 5]: 4
Serum amylase increased [3, 5]: 3
Urinary Tract Infection [3, 5]: 1
Vomiting [3, 5]: 1
Weight Loss [3, 5]: 2
White Blood Cell Decreased [3, 5]: 2
Would dehiscence [3, 5]: 1
Wound complication [3, 5]: 1
patients with toxicities attributed to the drug (alone), number ([3]; of 35 patients): 28
patients with toxicities attributed to the drug by the treating investigator ([3]; of 35 patients): 80%
